Key:
[1] = tested on: HCT116 MTAP KO cells; test: Inhibitory activity against cell proliferation (CellTiter Glo, 6 days), HCT116 MTAP KO; format: cell-based; settings: for IC50: Homo sapiens, HCT-116, 144 h, HCT116 MTAP KO cells, 6 days, CellTiter Glo, read-out: HCT116 MTAP KO IC50; for Selectivity HCT 116-WT/ HCT116 MTAP KO: ratio of IC50 HCT116-WT / HCT116 MTAP KO
In short: (§1)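 250 cells/well, McCoy's 5A + 10% FBS, o/n 37°C 5% CO2; cpd 8-pt 4-fold from 10000 nM, 6 d; CTG lum on day 7; IC50 vs DMSO.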

[2] = target: PRMT5-MTA (Homo sapiens, UniProt O14744); test: Enzymatic inhibitory activity against PRMT5-MTA (AlphaScreen); format: biochemical; settings: read-out: IC50
PRMT5-MTA, sequence (O14744 whole entry): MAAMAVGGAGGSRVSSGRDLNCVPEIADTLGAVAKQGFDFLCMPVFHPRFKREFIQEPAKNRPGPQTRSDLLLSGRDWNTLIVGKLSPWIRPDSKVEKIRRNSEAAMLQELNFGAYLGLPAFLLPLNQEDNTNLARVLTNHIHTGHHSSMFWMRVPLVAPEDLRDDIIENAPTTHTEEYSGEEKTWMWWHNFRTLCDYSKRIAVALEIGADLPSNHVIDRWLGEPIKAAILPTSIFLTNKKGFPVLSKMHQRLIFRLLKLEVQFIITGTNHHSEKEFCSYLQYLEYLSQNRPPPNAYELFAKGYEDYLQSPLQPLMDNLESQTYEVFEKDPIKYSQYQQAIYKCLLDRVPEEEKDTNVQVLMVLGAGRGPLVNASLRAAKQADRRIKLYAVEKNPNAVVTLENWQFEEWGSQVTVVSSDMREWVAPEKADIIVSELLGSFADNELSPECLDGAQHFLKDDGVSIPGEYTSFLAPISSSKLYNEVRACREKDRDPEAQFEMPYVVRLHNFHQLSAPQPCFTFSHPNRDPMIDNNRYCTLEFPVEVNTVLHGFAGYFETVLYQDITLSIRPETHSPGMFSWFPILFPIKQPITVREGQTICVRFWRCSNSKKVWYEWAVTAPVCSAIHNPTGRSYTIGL
PRMT5-MTA, sequence (Q9BQA1 whole entry partner): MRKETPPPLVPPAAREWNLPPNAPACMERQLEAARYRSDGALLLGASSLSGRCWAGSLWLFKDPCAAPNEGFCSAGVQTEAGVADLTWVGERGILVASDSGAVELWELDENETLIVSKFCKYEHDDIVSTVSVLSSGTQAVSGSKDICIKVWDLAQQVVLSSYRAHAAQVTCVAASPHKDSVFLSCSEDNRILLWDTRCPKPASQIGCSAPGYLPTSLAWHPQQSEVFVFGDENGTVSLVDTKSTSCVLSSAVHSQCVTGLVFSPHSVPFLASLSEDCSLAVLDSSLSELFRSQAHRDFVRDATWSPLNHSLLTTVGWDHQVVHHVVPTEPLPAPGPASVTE
In short: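 PRMT5/[…] (1 nM) was preincubated for 30 min at room temperature with 1 µM […] and 2.5 µM SAM, then exposed to compound (10-point, 3-fold from 1000 nM) for 15 min at 23 °C. Histone H4 substrate (5 nM) was added and reacted for 45 min at 23 °C. Symmetric dimethyl-R3 H4 was detected by AlphaScreen and IC50 calculated.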

[3] = tested on: HCT116-WT cells; test: Inhibitory activity against cell proliferation (CellTiter Glo, 6 days), HCT116-WT; format: cell-based; settings: 144 h, HCT116-WT cells, 6 days, CellTiter Glo; read-out: HCT116-WT IC50
In short: as §1

| SMILES | IC50 [1] [nM] | Selectivity HCT 116-WT/ HCT116 MTAP KO [1] | IC50 [2] [nM] | IC50 [3] [nM] |
| --- | --- | --- | --- | --- |
| Cc1cc2nc(N)c3cnn(C)c3c2cc1C(=O)N1CC(C)CN1c1ncccc1Br (centres unmarked) [Example 370, (4-amino-1,7-dimethyl-1H-pyrazolo[4,3-c]quinolin-8-yl)(2-(3-bromopyridin-2-yl) -4-methylpyrazolidin-1-yl)methanone] | 118 | 29.42 | 5.7 | 3470 |
| Cc1cc2nc(N)c3cnn(C)c3c2cc1C(=O)N1CC(C)CN1c1cc(F)ccn1 (centres unmarked) [Example 372, (4-amino-1,7-dimethyl-1H-pyrazolo[4,3-c]quinolin-8-yl)(2-(4-fluoropyridin-2-yl)-4-methylpyrazolidin-1-yl)methanone] | 83 | 30.42 | 3.4 | 2520 |
| Cc1cc2nc(N)c3cnn(C)c3c2cc1C(=O)N1CCC(C)N1c1ncccn1 (centres unmarked) [Example 374, (4-amino-1,7-dimethyl-1H-pyrazolo[4,3-c]quinolin-8-yl)(3-methyl-2-(pyrimidin-2-yl)pyrazolidin-1-yl)methanone] | 210 | – | 8.1 | > 10000 |
| Cc1cc2nc(N)c3cnn(C)c3c2cc1C(=O)N1CCCN1c1ccc(C(F)(F)F)cc1 [Example 377, (4-amino-1,7-dimethyl-1H-pyrazolo[4,3-c]quinolin-8-yl)(2-(4-(trifluoromethyl)phenyl)pyrazolidin-1-yl)methanone] | 311 | 13.85 | 3.1 | 4310 |
| Cc1cc2nc(N)c3cnn(C)c3c2cc1C(=O)N1CC(C)CN1c1ccccc1C(F)(F)F (centres unmarked) [Example 378, (4-amino-1,7-dimethyl-1H-pyrazolo[4,3-c]quinolin-8-yl)(4-methyl-2-(2-(trifluoromethyl)phenyl)pyrazolidin-1-yl)methanone] | 316 | 21.39 | 6.6 | 6760 |
| Cc1cc2nc(N)c3cnn(C)c3c2cc1C(=O)N1CC(C)CN1c1ccncc1F (centres unmarked) [Example 379, (4-amino-1,7-dimethyl-1H-pyrazolo[4,3-c]quinolin-8-yl)(2-(3-fluoropyridin-4-yl)-4-methylpyrazolidin-1-yl)methanone] | 40 | 45.38 | 7.8 | 1820 |
| Cc1cc2nc(N)c3cnn(C)c3c2cc1C(=O)N1CC(C)CN1c1ccc(F)cc1F (centres unmarked) [Example 381, (4-amino-1,7-dimethyl-1H-pyrazolo[4,3-c]quinolin-8-yl)(2-(2,4-difluorophenyl)-4-methylpyrazolidin-1-yl)methanone] | 63 | 36.92 | 4 | 2330 |
| Cc1cc2nc(N)c3cnn(C)c3c2cc1C(=O)N1CC(C)CN1c1ccccc1Cl (centres unmarked) [Example 382, (4-amino-1,7-dimethyl-1H-pyrazolo[4,3-c]quinolin-8-yl)(2-(2-chlorophenyl)-4-methylpyrazolidin-1-yl)methanone] | 124 | 12.40 | 4.8 | 1540 |
| Cc1cc2nc(N)c3cnn(C)c3c2cc1C(=O)N1CC(C)CN1c1cccc(Cl)c1F (centres unmarked) [Example 383, (4-amino-1,7-dimethyl-1H-pyrazolo[4,3-c]quinolin-8-yl)(2-(3-chloro-2-fluorophenyl)-4-methylpyrazolidin-1-yl)methanone] | 50 | 35.34 | 6 | 1770 |
| Cc1cc2nc(N)c3cnn(C)c3c2cc1C(=O)N1CC(C)CN1c1ccc(OC(F)(F)F)cn1 (centres unmarked) [Example 384, (4-amino-1,7-dimethyl-1H-pyrazolo[4,3-c]quinolin-8-yl)(4-methyl-2-(5-(trifluoromethoxy)pyridin-2-yl)pyrazolidin-1-yl)m ethanone] | 238 | 14.35 | 4.1 | 3420 |
| CCOc1ccc(N2CC(C)CN2C(=O)c2cc3c(cc2C)nc(N)c2cnn(C)c23)nn1 (centres unmarked) [Example 385, (4-amino-1,7-dimethyl-1H-pyrazolo[4,3-c]quinolin-8-yl)(2-(6-ethoxypyridazin-3-yl)-4-methylpyrazolidin-1-yl)methanone] | 104 | 36.22 | 5.4 | 3770 |
| CC1CN(C(=O)c2cc3c(cc2Cl)nc(N)c2cnn(C)c23)N(c2ccccc2F)C1 (centres unmarked) [Example 386, (4-amino-7-chloro-1-methyl-1H-pyrazolo [4,3-c]quinolin-8-yl)(2-(2-fluorophenyl)-4-methylpyrazolidin-1-yl)methanone] | 13 | 25.85 | 6.2 | 336 |
| Cc1cc2nc(N)c3cnn(C)c3c2cc1C(=O)N1CC(C)CN1c1cncc(F)c1 (centres unmarked) [Example 387, (4-amino-1,7-dimethyl-1H-pyrazolo[4,3-c]quinolin-8-yl)(2-(5-fluoropyridin-3-yl)-4-methylpyrazolidin-1-yl)methanone] | 90 | 27.40 | 3.7 | 2470 |
| Cc1cc2nc(N)c3cnn(C)c3c2cc1C(=O)N1CCC(C)N1c1ncc(Br)cc1F (centres unmarked) [Example 390, (4-amino-1,7-dimethyl-1H-pyrazolo[4,3-c]quinolin-8-yl)(2-(5-bromo-3-fluoropyridin-2-yl)-3-methylpyrazolidin-1-yl)metha none] | 233 | >42.92 | 8.6 | > 10000 |
| Cc1cc2nc(N)c3cnn(C)c3c2cc1C(=O)N1C(C)CCN1c1ncc(Br)cc1F (centres unmarked) [Example 391, (4-amino-1,7-dimethyl-1H-pyrazolo[4,3-c]quinolin-8-yl)(2-(5-bromo-3-fluoropyridin-2-yl)-5-methylpyrazolidin-1-yl)metha none] | 84 | 33.94 | 7.4 | 2850 |
| CC1CN(C(=O)c2cc3c(cc2F)nc(N)c2cnn(C)c23)N(c2ncccc2F)C1 (centres unmarked) [Example 393, (4-amino-7-fluoro-1-methyl-1H-pyrazolo [4,3-c]quinolin-8-yl)(2-(3-fluoropyridin-2-yl)-4-methylpyrazolidin-1-yl)methanone] | 9.8 | 51.22 | 3.4 | 502 |
| Cc1cc2nc(N)c3cnn(C)c3c2cc1C(=O)N1CC(C)CN1c1ncncc1F (centres unmarked) [Example 395, (4-amino-1,7-dimethyl-1H-pyrazolo[4,3-c]quinolin-8-yl)(2-(5-fluoropyrimidin-4-yl)-4-methylpyrazolidin-1-yl)methanone] | 66 | 41.05 | 4.9 | 2710 |
| Cc1cc2nc(N)c3cnn(C)c3c2cc1C(=O)N1CC(C)CN1c1ccccc1 (centres unmarked) [Example 396, (4-amino-1,7-dimethyl-1H-pyrazolo[4,3-c]quinolin-8-yl)(4-methyl-2-phenylpyrazolidin-1-yl)methanone] | 298 | 16.21 | 5.2 | 4830 |
| Cc1cc2nc(N)c3cnn(C)c3c2cc1C(=O)N1CC(C)CN1c1cnccn1 (centres unmarked) [Example 397, (4-amino-1,7-dimethyl-1H-pyrazolo[4,3-c]quinolin-8-yl)(4-methyl-2-(pyrazin-2-yl)pyrazolidin-1-yl)methanone] | 197 | 34.46 | 15 | 6790 |
| CC1CN(C(=O)c2cc3c(cc2Cl)nc(N)c2cnn(C)c23)N(c2ncccc2F)C1 (centres unmarked) [Example 398, (4-amino-7-chloro-1-methyl-1H-pyrazolo [4,3-c]quinolin-8-yl)(2-(3-fluoropyridin-2-yl)-4-methylpyrazolidin-1-yl)methanone] | 39 | 41.49 | 3.9 | 1620 |
| Cc1cc2nc(N)c3cnn(C)c3c2cc1C(=O)N1CC(C)CN1c1c(F)cccc1F (centres unmarked) [Example 400, (4-amino-1,7-dimethyl-1H-pyrazolo[4,3-c]quinolin-8-yl)(2-(2,6-difluorophenyl)-4-methylpyrazolidin-1-yl)methanone] | 33 | 56.79 | 5.8 | 1870 |
| COc1ccccc1N1CC(C)CN1C(=O)c1cc2c(cc1C)nc(N)c1cnn(C)c12 (centres unmarked) [Example 401, (4-amino-1,7-dimethyl-1H-pyrazolo[4,3-c]quinolin-8-yl)(2-(2-methoxyphenyl)-4-methylpyrazolidin-1-yl)methanone] | 204 | >49.02 | 3.5 | > 10000 |
| CC1CN(C(=O)c2cc3c(cc2Cl)nc(N)c2cnn(C)c23)N(c2cccc(F)c2F)C1 (centres unmarked) [Example 402, (4-amino-7-chloro-1-methyl-1H-pyrazolo [4,3-c]quinolin-8-yl)(2-(2,3-difluorophenyl)-4-methylpyrazolidin-1-yl)methanone] | 24 | 23.71 | 6.4 | 569 |
| Cc1cc2nc(N)c3cnn(C)c3c2cc1C(=O)N1CC(C)CN1c1cccc(Cl)n1 (centres unmarked) [Example 403, (4-amino-1,7-dimethyl-1H-pyrazolo[4,3-c]quinolin-8-yl)(2-(6-chloropyridin-2-yl)-4-methylpyrazolidin-1-yl)methanone] | 14 | 19.79 | 3.8 | 277 |

Source: patent EP4745134A1 (Jiangsu Yahong Meditech Co., Ltd., priority 2023, dated 2025)
